Target: T1, F508delCFTR cell surface expression in CFBE41o-F508delCFTR-HRP cells (Homo sapiens, UniProt P13569, DEL508-508)
T1 construct: fused on or other part: Horseradish peroxidase (HRP) reporter inserted in the fourth exofacial (extracellular) loop of CFTR; expression is doxycycline-inducible
Assay: Cell Surface Expression-Horse Radish Peroxidase (CSE-HRP) Assay
Format: cell-based
Conditions: for EC50: CFBE41o-F508delCFTR-HRP cells, 18-24 hours at 33° C., 8-point curve, highest concentration 20 μM; for Maximum % activity (%): maximum at any tested concentration, normalized to on-plate positive control (3 μM)
Outline: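 CFBE41o- cells with HRP-tagged F508delCFTR, expression induced by 0.5 μg/mL doxycycline for 72 h at 37 °C, then compound for 18-24 h at 33 °C (8-point, 3-fold, top 20 μM). Surface HRP measured by luminol luminescence; % activity normalised to 3 μM positive-control corrector; EC50 from variable-slope sigmoidal fit, three replicate plates.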

T1 sequence (P13569 with tags, fused parts or gaps DEL508-508 limits assumed): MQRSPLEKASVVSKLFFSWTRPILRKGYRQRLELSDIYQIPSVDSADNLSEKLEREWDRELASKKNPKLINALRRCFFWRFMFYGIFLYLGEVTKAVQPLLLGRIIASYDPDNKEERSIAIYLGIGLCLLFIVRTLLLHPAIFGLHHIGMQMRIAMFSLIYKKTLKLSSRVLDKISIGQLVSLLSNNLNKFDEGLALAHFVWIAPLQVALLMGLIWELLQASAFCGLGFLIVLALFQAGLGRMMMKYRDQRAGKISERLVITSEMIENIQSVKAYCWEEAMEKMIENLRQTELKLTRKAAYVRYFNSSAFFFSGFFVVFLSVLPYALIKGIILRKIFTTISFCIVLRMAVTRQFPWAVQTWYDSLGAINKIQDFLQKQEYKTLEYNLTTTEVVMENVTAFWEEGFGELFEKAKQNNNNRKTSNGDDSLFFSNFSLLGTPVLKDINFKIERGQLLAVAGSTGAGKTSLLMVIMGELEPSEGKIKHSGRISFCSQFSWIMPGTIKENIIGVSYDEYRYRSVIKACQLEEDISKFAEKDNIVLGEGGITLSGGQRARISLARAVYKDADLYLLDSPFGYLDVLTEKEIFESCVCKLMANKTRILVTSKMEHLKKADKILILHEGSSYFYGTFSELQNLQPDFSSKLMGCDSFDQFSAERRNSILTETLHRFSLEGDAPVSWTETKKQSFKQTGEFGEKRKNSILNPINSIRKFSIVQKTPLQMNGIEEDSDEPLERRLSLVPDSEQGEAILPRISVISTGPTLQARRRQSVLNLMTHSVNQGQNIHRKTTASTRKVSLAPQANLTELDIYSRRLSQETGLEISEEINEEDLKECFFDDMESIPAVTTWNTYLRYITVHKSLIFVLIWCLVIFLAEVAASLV
T1 sequence (P13569 919-1480 limits assumed, stated change not applied): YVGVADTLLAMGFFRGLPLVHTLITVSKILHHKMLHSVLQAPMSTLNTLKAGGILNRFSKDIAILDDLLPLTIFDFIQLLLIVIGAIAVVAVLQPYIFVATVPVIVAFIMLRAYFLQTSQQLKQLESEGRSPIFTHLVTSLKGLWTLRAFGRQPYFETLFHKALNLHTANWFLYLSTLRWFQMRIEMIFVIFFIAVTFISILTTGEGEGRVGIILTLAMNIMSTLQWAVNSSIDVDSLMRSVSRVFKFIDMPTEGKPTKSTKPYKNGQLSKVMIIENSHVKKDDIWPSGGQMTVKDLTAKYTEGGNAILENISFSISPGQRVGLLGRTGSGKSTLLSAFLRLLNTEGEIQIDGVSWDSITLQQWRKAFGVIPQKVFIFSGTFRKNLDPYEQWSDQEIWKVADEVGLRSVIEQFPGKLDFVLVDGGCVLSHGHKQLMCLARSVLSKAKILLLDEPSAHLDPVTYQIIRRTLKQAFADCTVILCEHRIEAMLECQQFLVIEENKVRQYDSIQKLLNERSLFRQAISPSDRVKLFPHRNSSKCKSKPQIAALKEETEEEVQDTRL

EC50 [nM] | Maximum % activity (%) | Molecule
530 | 189 | COc1cc2c(cc1Br)[C@H](NC(=O)[C@@]1(C)COc3cc4c(cc31)OC(F)(F)O4)C[C@H]([C@H]1CC[C@H](C(=O)O)CC1)O2 [Example 290, trans-4-[(2R,4R)-6-bromo-4-{[(7R)-2,2-difluoro-7-methyl-6,7-dihydro-2H-furo[2,3-f][1,3]benzodioxole-7-carbonyl]amino}-7-methoxy-3,4-dihydro-2H-1-benzopyran-2-yl]cyclohexane-1-carboxylic acid]
7540 | 99 | COc1ccc2c(c1)O[C@@H](C1CCC(C(=O)O)CC1)C[C@H]2NC(=O)[C@]1(C)COc2cc3c(cc21)OC(F)(F)O3 (stereo partly drawn) [Example 292, 4-[(2R,4R)-4-{[(7S)-2,2-difluoro-7-methyl-6,7-dihydro-2H-furo[2,3-f][1,3]benzodioxole-7-carbonyl]amino}-7-methoxy-3,4-dihydro-2H-1-benzopyran-2-yl]cyclohexane-1-carboxylic acid]
60 | 186 | C[C@]1(C(=O)N[C@@H]2C[C@H]([C@H]3CC[C@H](C(=O)N(CCO)Cc4ccccc4)CC3)Oc3cc(OC(F)(F)F)ccc32)COc2cc3c(cc21)OC(F)(F)O3 [Example 264, (7R)—N-[(2R,4R)-2-{trans-4-[benzyl(2-hydroxyethyl)carbamoyl]cyclohexyl}-7-(trifluoromethoxy)-3,4-dihydro-2H-1-benzopyran-4-yl]-2,2-difluoro-7-methyl-6,7-dihydro-2H-furo[2,3-f][1,3]benzodioxole-7-carboxamide]
5090 | 101 | C[C@]1(C(=O)N[C@H]2C[C@@H]([C@H]3CC[C@@H](C(=O)O)CC3)Oc3cc(OC(F)(F)F)ccc32)COc2cc3c(cc21)OC(F)(F)O3 [Example 161, cis-4-[(2S,4S)-4-{[(7R)-2,2-difluoro-7-methyl-6,7-dihydro-2H-furo[2,3-f][1,3]benzodioxole-7-carbonyl]amino}-7-(trifluoromethoxy)-3,4-dihydro-2H-1-benzopyran-2-yl]cyclohexane-1-carboxylic acid]
810 | 75 | C[C@]1(C(=O)N[C@H]2C[C@@H]([C@H]3CC[C@H](C(=O)O)CC3)Oc3cc(OC(F)F)ccc32)COc2cc3c(cc21)OC(F)(F)O3 [Example 163, trans-4-[(2S,4S)-7-(difluoromethoxy)-4-{[(7R)-2,2-difluoro-7-methyl-6,7-dihydro-2H-furo[2,3-f][1,3]benzodioxole-7-carbonyl]amino}-3,4-dihydro-2H-1-benzopyran-2-yl]cyclohexane-1-carboxylic acid]
1760 | 95 | COc1ccc2c(c1)O[C@@H](c1nnnn1Cc1ccccc1)C[C@H]2NC(=O)[C@@]1(C)COc2cc3c(cc21)OC(F)(F)O3 [Example 283, (7R)—N-[(2R,4R)-2-(1-benzyl-1H-tetrazol-5-yl)-7-methoxy-3,4-dihydro-2H-1-benzopyran-4-yl]-2,2-difluoro-7-methyl-6,7-dihydro-2H-furo[2,3-f][1,3]benzodioxole-7-carboxamide]
110 | 174 | CC(O)CNC(=O)[C@H]1CC[C@H]([C@H]2C[C@@H](NC(=O)[C@@]3(C)COc4cc5c(cc43)OC(F)(F)O5)c3ccc(OC(F)(F)F)cc3O2)CC1 (stereo partly drawn) [Example 258, (7R)-2,2-difluoro-N-[(2R,4R)-2-{trans-4-[(2-hydroxypropyl)carbamoyl]cyclohexyl}-7-(trifluoromethoxy)-3,4-dihydro-2H-1-benzopyran-4-yl]-7-methyl-6,7-dihydro-2H-furo[2,3-f][1,3]benzodioxole-7-carboxamide]
640 | 199 | CCOC(=O)C1(CN)CCC([C@H]2C[C@@H](NC(=O)[C@@]3(C)COc4cc5c(cc43)OC(F)(F)O5)c3ccc(OC(F)(F)F)cc3O2)CC1 (stereo partly drawn) [Example 287, ethyl 1-(aminomethyl)-4-[(2R,4R)-4-{[(7R)-2,2-difluoro-7-methyl-6,7-dihydro-2H-furo[2,3-f][1,3]benzodioxole-7-carbonyl]amino}-7-(trifluoromethoxy)-3,4-dihydro-2H-1-benzopyran-2-yl]cyclohexane-1-carboxylate]
3040 | 136 | CN1CC2CN(c3cccc(NC(=O)C4(C)COc5cc6c(cc54)OC(F)(F)O6)n3)CC2C1 (stereo not drawn) [Example 107, 2,2-difluoro-7-methyl-N-[6-(5-methylhexahydropyrrolo[3,4-c]pyrrol-2(1H)-yl)pyridin-2-yl]-6,7-dihydro-2H-furo[2,3-f][1,3]benzodioxole-7-carboxamide]
70 | 132 | COc1ccc2c(c1)O[C@H](c1ccc(=O)[nH]n1)C[C@H]2NC(=O)[C@@]1(C)COc2cc3c(cc21)OC(F)(F)O3 [Example 200, (7R)-2,2-difluoro-N-[(2S,4R)-7-methoxy-2-(6-oxo-1,6-dihydropyridazin-3-yl)-3,4-dihydro-2H-1-benzopyran-4-yl]-7-methyl-6,7-dihydro-2H-furo[2,3-f][1,3]benzodioxole-7-carboxamide]
80 | 125 | COCC(CO)NC(=O)c1ccc([C@H]2C[C@@H](NC(=O)[C@@]3(C)COc4cc5c(cc43)OC(F)(F)O5)c3ccc(OC)cc3O2)nc1 (stereo partly drawn) [Example 246, 6-[(2R,4R)-4-{[(7R)-2,2-difluoro-7-methyl-6,7-dihydro-2H-furo[2,3-f][1,3]benzodioxole-7-carbonyl]amino}-7-methoxy-3,4-dihydro-2H-1-benzopyran-2-yl]-N-(1-hydroxy-3-methoxypropan-2-yl)pyridine-3-carboxamide]
870 | 116 | CC1(C)CCN(c2cccc(NC(=O)[C@@]3(C)COc4cc5c(cc43)OC(F)(F)O5)n2)C1 [Example 101, (7R)—N-[6-(3,3-dimethylpyrrolidin-1-yl)pyridin-2-yl]-2,2-difluoro-7-methyl-6,7-dihydro-2H-furo[2,3-f][1,3]benzodioxole-7-carboxamide]
210 | 149 | CC(C)(C)OC(=O)N[C@H]1CC[C@H]([C@H]2C[C@@H](NC(=O)[C@@]3(C)COc4cc5c(cc43)OC(F)(F)O5)c3ccc(OC(F)F)cc3O2)CC1 [Example 199, tert-butyl {trans-4-[(2R,4R)-7-(difluoromethoxy)-4-{[(7R)-2,2-difluoro-7-methyl-6,7-dihydro-2H-furo[2,3-f][1,3]benzodioxole-7-carbonyl]amino}-3,4-dihydro-2H-1-benzopyran-2-yl]cyclohexyl}carbamate]

More lines, now with the values behind:

Molecule | EC50 [nM] | Maximum % activity (%)
C[C@]1(C(=O)Nc2cccc(N3CCOC(CO)C3)n2)COc2cc3c(cc21)OC(F)(F)O3 (stereo partly drawn) [Example 87, (7R)-2,2-difluoro-N-{6-[2-(hydroxymethyl)morpholin-4-yl]pyridin-2-yl}-7-methyl-6,7-dihydro-2H-furo[2,3-f][1,3]benzodioxole-7-carboxamide] | 1860 | 100
C[C@]1(C(=O)Nc2cccc(N3CC[C@@H](C(=O)O)C3)n2)COc2cc3c(cc21)OC(F)(F)O3 [Example 9, (3R)-1-(6-{[(7R)-2,2-difluoro-7-methyl-6,7-dihydro-2H-furo[2,3-f][1,3]benzodioxole-7-carbonyl]amino}pyridin-2-yl)pyrrolidine-3-carboxylic acid] | 1030 | 135
Cc1ccc(NC(=O)C2(C)COc3cc4c(cc32)OC(F)(F)O4)nc1-c1cccc(C(=O)N(C)C)c1 (stereo not drawn) [Example 75, N-{6-[3-(dimethylcarbamoyl)phenyl]-5-methylpyridin-2-yl}-2,2-difluoro-7-methyl-6,7-dihydro-2H-furo[2,3-f][1,3]benzodioxole-7-carboxamide] | 1730 | 94
COc1ccc2c(c1)O[C@@H](c1cccc(C(=O)O)c1)C[C@H]2NC(=O)[C@]1(C)COc2cc3c(cc21)OC(F)(F)O3 [Example 13, 3-[(2R,4R)-4-{[(7S)-2,2-difluoro-7-methyl-6,7-dihydro-2H-furo[2,3-f][1,3]benzodioxole-7-carbonyl]amino}-7-methoxy-3,4-dihydro-2H-1-benzopyran-2-yl]benzoic acid] | 8810 | 72
COC(=O)[C@@H]1CCN(c2cccc(NC(=O)C3(C)COc4cc5c(cc43)OC(F)(F)O5)n2)C1 (stereo partly drawn) [Example 7, methyl (3R)-1-{6-[(2,2-difluoro-7-methyl-6,7-dihydro-2H-furo[2,3-f][1,3]benzodioxole-7-carbonyl)amino]pyridin-2-yl}pyrrolidine-3-carboxylate] | 3770 | 124
C[C@]1(C(=O)Nc2cc(-c3ccccc3)cn(-c3ccc(C(=O)O)cc3)c2=O)COc2cc3c(cc21)OC(F)(F)O3 [Example 99, 4-[3-{[(7R)-2,2-difluoro-7-methyl-6,7-dihydro-2H-furo[2,3-f][1,3]benzodioxole-7-carbonyl]amino}-2-oxo-5-phenylpyridin-1(2H)-yl]benzoic acid] | 230 | 71
C[C@]1(C(=O)N[C@H]2C[C@@H](c3ccc(C(=O)O)cc3)O[C@@H](c3ccccc3)C2)COc2cc3c(cc21)OC(F)(F)O3 (single isomer, unassigned) [Example 45] | 920 | 111
4-[(2R,4S,6R)-4-{[(7R)-2,2-difluoro-7-methyl-6,7-dihydro-2H-furo[2,3-f][1,3]benzodioxole-7-carbonyl]amino}-6-methyloxan-2-yl]benzoic acid and 4-[(2S,4R,6S)-4-{[(7R)-2,2-difluoro-7-methyl-6,7-dihydro-2H-furo[2,3-f][1,3]benzodioxole-7-carbonyl]amino}-6-methyloxan-2-yl]benzoic acid [Example 43] | 2510 | 93

Source: patent publication US9840513B2 (AbbVie S.à.r.l., priority 2015, dated 2017)
